The values that follow come from patent publication US9533965B2, “2-arylbenzofuran-7-formamide compounds, preparation method and use thereof” (SHANGHAI INSTITUTE OF MATERIA MEDICA, CHINESE ACADEMY OF …, priority 2012, dated 2017).

The subject of one data set is wild type cell line V79. The data set can be described thus: In vitro cell proliferation inhibition (MTT), V79 cells. Format: cell-based, Chinese hamster. The note with it: Cricetulus griseus; MTT, 72 h, wild type V79; read-out: V79 cell IC50.
The target of another data set is T1, TNKS2 (Homo sapiens, UniProt Q9H2K2).
T1 sequence (Q9H2K2 1-1166): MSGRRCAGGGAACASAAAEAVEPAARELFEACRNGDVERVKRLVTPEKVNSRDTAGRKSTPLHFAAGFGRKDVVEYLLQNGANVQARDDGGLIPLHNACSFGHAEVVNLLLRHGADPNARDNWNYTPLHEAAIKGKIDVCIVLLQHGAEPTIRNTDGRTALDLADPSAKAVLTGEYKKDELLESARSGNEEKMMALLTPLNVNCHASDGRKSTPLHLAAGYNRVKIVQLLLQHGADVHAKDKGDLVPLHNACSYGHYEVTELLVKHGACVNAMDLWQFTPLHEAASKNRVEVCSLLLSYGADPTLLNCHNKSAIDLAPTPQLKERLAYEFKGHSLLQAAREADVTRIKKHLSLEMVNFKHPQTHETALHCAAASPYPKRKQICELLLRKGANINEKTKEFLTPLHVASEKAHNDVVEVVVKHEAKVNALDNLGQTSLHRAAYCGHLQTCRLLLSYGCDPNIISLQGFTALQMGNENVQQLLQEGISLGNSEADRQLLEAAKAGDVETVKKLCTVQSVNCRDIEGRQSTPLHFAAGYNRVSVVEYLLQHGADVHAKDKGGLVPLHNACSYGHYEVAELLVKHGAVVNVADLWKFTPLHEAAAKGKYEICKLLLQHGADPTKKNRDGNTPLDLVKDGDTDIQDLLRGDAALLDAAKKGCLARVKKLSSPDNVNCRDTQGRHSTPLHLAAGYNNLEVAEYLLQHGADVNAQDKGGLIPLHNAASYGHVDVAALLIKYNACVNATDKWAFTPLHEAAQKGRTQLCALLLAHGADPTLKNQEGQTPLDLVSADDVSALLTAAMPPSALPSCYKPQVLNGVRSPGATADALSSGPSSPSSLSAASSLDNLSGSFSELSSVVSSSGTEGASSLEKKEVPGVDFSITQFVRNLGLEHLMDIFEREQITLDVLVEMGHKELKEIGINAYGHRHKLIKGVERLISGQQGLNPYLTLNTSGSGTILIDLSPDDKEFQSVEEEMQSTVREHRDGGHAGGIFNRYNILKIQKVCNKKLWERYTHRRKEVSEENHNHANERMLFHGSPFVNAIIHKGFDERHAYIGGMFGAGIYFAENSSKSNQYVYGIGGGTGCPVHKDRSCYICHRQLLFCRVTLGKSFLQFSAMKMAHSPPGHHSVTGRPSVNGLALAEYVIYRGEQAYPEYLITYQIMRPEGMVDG
Nature of the data set: Enzymatic inhibition on the PARP family members (ELISA), TNKS2. Format: biochemical. As to conditions: PARP family panel, 30° C.

Data set [1] has as its system Chinese hamster lung fibroblast cell line VC8 (BRCA2−/−). Nature of the data set: In vitro cell proliferation inhibition (MTT), VC8 cells. Format: cell-based. The note with it: Cricetulus griseus, V-C8, 72 h, MTT, 72 h, VC8 (BRCA2−/−); read-out: VC8 cell IC50.
The next data set has as its target PARP2 (Homo sapiens, UniProt Q9UGN5). The data set can be described thus: Enzymatic inhibition on the PARP family members (ELISA), PARP2. The data set is classed as biochemical. The note with it: PARP family panel.
For a further data set, the target named is PARP1 (Homo sapiens, UniProt P09874). Nature of the data set: Enzymatic inhibition on the PARP family members (ELISA), PARP1. Format: biochemical.
Sequence of PARP1 (P09874 whole entry): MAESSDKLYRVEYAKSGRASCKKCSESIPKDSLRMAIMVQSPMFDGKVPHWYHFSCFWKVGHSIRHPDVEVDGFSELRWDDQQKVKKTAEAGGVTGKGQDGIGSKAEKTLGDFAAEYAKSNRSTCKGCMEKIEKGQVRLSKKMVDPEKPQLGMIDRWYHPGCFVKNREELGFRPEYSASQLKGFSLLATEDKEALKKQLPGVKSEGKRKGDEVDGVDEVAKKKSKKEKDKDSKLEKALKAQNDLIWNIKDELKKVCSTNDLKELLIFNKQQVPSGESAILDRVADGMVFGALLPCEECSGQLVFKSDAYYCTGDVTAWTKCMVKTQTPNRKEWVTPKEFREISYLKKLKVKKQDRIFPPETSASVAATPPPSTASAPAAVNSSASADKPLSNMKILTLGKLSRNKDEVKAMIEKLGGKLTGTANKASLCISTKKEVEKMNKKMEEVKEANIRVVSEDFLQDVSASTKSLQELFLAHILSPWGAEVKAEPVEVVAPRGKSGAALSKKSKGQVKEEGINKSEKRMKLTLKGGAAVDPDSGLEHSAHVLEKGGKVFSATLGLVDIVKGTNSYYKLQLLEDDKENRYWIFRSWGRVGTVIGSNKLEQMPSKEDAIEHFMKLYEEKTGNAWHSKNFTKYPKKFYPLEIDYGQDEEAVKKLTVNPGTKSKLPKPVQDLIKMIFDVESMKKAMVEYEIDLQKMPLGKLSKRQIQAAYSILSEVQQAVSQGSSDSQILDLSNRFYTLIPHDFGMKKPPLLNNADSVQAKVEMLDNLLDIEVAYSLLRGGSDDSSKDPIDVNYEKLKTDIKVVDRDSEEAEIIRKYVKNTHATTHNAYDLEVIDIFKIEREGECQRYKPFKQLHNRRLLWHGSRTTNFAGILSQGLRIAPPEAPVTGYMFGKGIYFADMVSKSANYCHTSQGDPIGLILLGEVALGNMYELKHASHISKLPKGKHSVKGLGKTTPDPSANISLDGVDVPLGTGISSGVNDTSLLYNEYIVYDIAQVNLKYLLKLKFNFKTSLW
A short description of data set [2]: Preliminary pharmacokinetic experiment in rats by gavage. Format: in vivo, SD rats. The note with it: 10 mg/kg by gavage. The protocol:
Healthy SD rats (supplied by Shanghai Sippr-BK Lab. Animal Co. Ltd, the Production License Number for the experimental animals: SCXK (hu), 200-220 g of weight, male) were divided into groups randomly and administrated by gavage, respectively. The compound was dissolved in normal saline.
The rats fasted for 12 h and could drink water ad libitum before experiment. 2 h after dosing, the rats were provided with food all together.
The time point for collecting blood samples and the sample processing are listed as follows.
Intragastric administration: 0.25, 0.5, 1.0, 2.0, 3.0, 5.0, 7.0, 9.0 and 24 h after administration: 0.3 mL venous blood was taken from retrobulbar venous plexus of the rat and loaded into heparinization tubes. After being centrifuged at 11000 rpm for 5 min, the plasma was separated and frozen at −20° C. in a refrigerator.

“And” between values parts separate entries of the source, which are not always exact repeats. Equal values may be shown once. Read-outs that look alike come from different tables or passages of the source. A value given as a limit tells only on which side of the number the result lay.

Sequence of PARP2 (Q9UGN5 whole entry): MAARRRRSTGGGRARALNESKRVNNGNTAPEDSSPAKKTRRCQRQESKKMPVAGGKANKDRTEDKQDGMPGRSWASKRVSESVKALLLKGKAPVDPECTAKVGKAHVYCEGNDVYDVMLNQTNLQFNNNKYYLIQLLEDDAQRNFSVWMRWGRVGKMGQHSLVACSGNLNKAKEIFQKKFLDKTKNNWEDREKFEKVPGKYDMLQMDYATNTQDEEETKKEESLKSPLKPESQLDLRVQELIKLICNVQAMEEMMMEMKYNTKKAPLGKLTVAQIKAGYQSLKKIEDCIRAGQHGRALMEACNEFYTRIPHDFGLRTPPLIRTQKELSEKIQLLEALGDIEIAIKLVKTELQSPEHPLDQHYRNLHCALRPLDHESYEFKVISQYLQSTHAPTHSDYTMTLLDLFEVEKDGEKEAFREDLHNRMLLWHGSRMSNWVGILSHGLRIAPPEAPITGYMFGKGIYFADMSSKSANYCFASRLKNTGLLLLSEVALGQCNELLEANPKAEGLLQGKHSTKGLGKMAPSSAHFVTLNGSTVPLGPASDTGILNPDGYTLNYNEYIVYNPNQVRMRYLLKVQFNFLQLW

For the compound `CNCc1ccc(-c2cc3cc(F)cc(C(N)=O)c3o2)cc1` [compound 5b, 5-fluoro-2-{4-[(methylamino)methyl]phenyl}benzofuran-7-carboxamide], the 50% inhibitory concentration (IC50) was greater than 10000 nM with wild type cell line V79; 1300 nM at TNKS2; 590 ± 150 nM in data set [1]; 1.9 nM against PARP2; 3.2 nM against PARP1 (PARP family panel). The “inhibitory activity on PARP1/2 relative to other isoenzymes in the family” value against PARP1 (PARP1/2 versus PARP3, TNKS1, TNKS2, PARP6) is “at least 400 times”. The “eliminate rate in vivo” value in data set [2] is given as “moderate”. For the same compound, the AUC0-t in data set [2] (10 mg/kg) is 394 ng·h/mL and 587 ng·h/mL and 352 ng·h/mL and 474 ng·h/mL; in data set [2] (male, Sprague-Dawley (SD), rat, plasma, po, 10 mg/kg, read-out: AUC0-t) it was 452 ± 103 ng·h/mL. The “AUC0-∞” value in data set [2] (10 mg/kg) was 595 ng·h/mL and 407 ng·h/mL and 478 ng·h/mL; in data set [2] (10 mg/kg, mean) it was 471 ng·h/mL. Also, the mean residence time MRT in data set [2] (10 mg/kg) is 3.82 h and 3.34 h and 5.57 h and 3.04 h; in data set [2] (male, Sprague-Dawley (SD), rat, plasma, po, 10 mg/kg, read-out: MRT), 3.94 ± 1.13 h. Moreover, the bioavailability in data set [2] (male, Sprague-Dawley (SD), rat, plasma, po, read-out: F (absolute bioavailability)) is 58.9%. Besides, the total exposure AUC(0-inf) in data set [2] (male, Sprague-Dawley (SD), rat, plasma, po, 10 mg/kg) is 404 ng·h/mL.
